PubChem BioAssay AID1963974 (Molecular Pharmacology Branch, DTP, NCI, 2024)

Tested on: 648629-189-R-J1-PDC spheroids with HUVEC/MSC, viability
Experiment: Anticancer human tumor 648629-189-R-J1-PDC patient-derived bladder carcinoma cell line growth inhibition [PI3K]
Settings: for IC50: curve of first compound; for viability, T/C: stronger effect = lower value; active = viability on the fitted dose curve at most 10% of control; inactive = the rest
How it was run: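 High-throughput combination screen: PI3K inhibitors crossed with targeted small molecules on complex spheroids of tumor cells, HUVEC and MSCs at 37 degrees C, 5% CO2. Top concentration was at or near clinical Cmax (otherwise 10 microM), with half-log decrements.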

[1] = second compound 0.0316 µM, first compound 0.0316 µM
[2] = second compound 0.0316 µM, first compound 0.1 µM
[3] = second compound 0.0316 µM, first compound 0.316 µM
[4] = second compound 0.0316 µM, first compound 1 µM
[5] = second compound 0.0316 µM, first compound 3.16 µM
[6] = second compound 0.0316 µM, first compound 10 µM
[7] = second compound 0.1 µM, first compound 0.0316 µM
[8] = second compound 0.1 µM, first compound 0.1 µM
[9] = second compound 0.1 µM, first compound 0.316 µM
[10] = second compound 0.1 µM, first compound 1 µM
[11] = second compound 0.1 µM, first compound 3.16 µM
[12] = second compound 0.1 µM, first compound 10 µM
[13] = second compound 0.316 µM, first compound 0.0316 µM
[14] = second compound 0.316 µM, first compound 0.1 µM
[15] = second compound 0.316 µM, first compound 0.316 µM
[16] = second compound 0.316 µM, first compound 1 µM
[17] = second compound 0.316 µM, first compound 3.16 µM
[18] = second compound 0.316 µM, first compound 10 µM
[19] = second compound 1 µM, first compound 0.0316 µM
[20] = second compound 1 µM, first compound 0.1 µM
[21] = second compound 1 µM, first compound 0.316 µM
[22] = second compound 1 µM, first compound 1 µM
[23] = second compound 1 µM, first compound 3.16 µM
[24] = second compound 1 µM, first compound 10 µM
[25] = second compound 3.16 µM, first compound 0.0316 µM
[26] = second compound 3.16 µM, first compound 0.1 µM
[27] = second compound 3.16 µM, first compound 0.316 µM
[28] = second compound 3.16 µM, first compound 1 µM
[29] = second compound 3.16 µM, first compound 3.16 µM
[30] = second compound 3.16 µM, first compound 10 µM
[31] = second compound 10 µM, first compound 0.0316 µM
[32] = second compound 10 µM, first compound 0.1 µM
[33] = second compound 10 µM, first compound 0.316 µM
[34] = second compound 10 µM, first compound 1 µM
[35] = second compound 10 µM, first compound 3.16 µM
[36] = second compound 10 µM, first compound 10 µM
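Also: spheroids exposed to agents for seven days before reading.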
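For viability, T/C in this document: percent of vehicle control luminescence where 100% = DMSO treated spheroids.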

C#Cc1c(F)ccc2cc(O)cc(-c3ncc4c(N5CC6CCC(C5)N6)nc(OCC56CCCN5CC(F)C6)nc4c3F)c12 (stereo not given) + CC(Nc1ncnc2nc[nH]c12)c1cc2cccc(Cl)c2c(=O)n1-c1ccccc1
> 10 µM: IC50 (second compound 0.0316 µM) | IC50 (second compound 0.1 µM) | IC50 (second compound 0.316 µM) | IC50 (second compound 1 µM) | IC50 (second compound 3.16 µM) | IC50 (second compound 10 µM)
inactive: viability, T/C [1] 116% | viability, T/C [2] 114% | viability, T/C [3] 103% | viability, T/C [4] 107% | viability, T/C [5] 105% | viability, T/C [6] 117% | viability, T/C [7] 116% | viability, T/C [8] 100% | viability, T/C [9] 104% | viability, T/C [10] 106% | viability, T/C [11] 117% | viability, T/C [12] 110% | viability, T/C [13] 102% | viability, T/C [14] 110% | viability, T/C [15] 101% | viability, T/C [16] 113% | viability, T/C [17] 116% | viability, T/C [18] 111% | viability, T/C [19] 92.8% | viability, T/C [20] 104% | viability, T/C [21] 107% | viability, T/C [22] 114% | viability, T/C [23] 107% | viability, T/C [24] 94.4% | viability, T/C [25] 92% | viability, T/C [26] 91.4% | viability, T/C [27] 90.7% | viability, T/C [28] 90.1% | viability, T/C [29] 93.4% | viability, T/C [30] 88.1% | viability, T/C [31] 90.7% | viability, T/C [32] 86.1% | viability, T/C [33] 75.7% | viability, T/C [34] 102% | viability, T/C [35] 92.5% | viability, T/C [36] 80.3%

C=CC(=O)N1CCN(c2nc(=O)n(-c3c(C)ccnc3C(C)C)c3nc(-c4c(O)cccc4F)c(F)cc23)C(C)C1 (stereo not given) + CC(Nc1ncnc2nc[nH]c12)c1cc2cccc(Cl)c2c(=O)n1-c1ccccc1
> 10 µM: IC50 (second compound 0.0316 µM) | IC50 (second compound 0.1 µM) | IC50 (second compound 0.316 µM) | IC50 (second compound 1 µM) | IC50 (second compound 3.16 µM) | IC50 (second compound 10 µM)
inactive: viability, T/C [1] 106% | viability, T/C [2] 95.3% | viability, T/C [3] 107% | viability, T/C [4] 109% | viability, T/C [5] 103% | viability, T/C [6] 96.9% | viability, T/C [7] 102% | viability, T/C [8] 101% | viability, T/C [9] 125% | viability, T/C [10] 104% | viability, T/C [11] 108% | viability, T/C [12] 87.5% | viability, T/C [13] 95.4% | viability, T/C [14] 115% | viability, T/C [15] 112% | viability, T/C [16] 103% | viability, T/C [17] 112% | viability, T/C [18] 103% | viability, T/C [19] 120% | viability, T/C [20] 99.3% | viability, T/C [21] 107% | viability, T/C [22] 107% | viability, T/C [23] 101% | viability, T/C [24] 92.1% | viability, T/C [25] 103% | viability, T/C [26] 92.1% | viability, T/C [27] 104% | viability, T/C [28] 101% | viability, T/C [29] 106% | viability, T/C [30] 98.8% | viability, T/C [31] 94.2% | viability, T/C [32] 86.9% | viability, T/C [33] 96.4% | viability, T/C [34] 95.6% | viability, T/C [35] 89.8% | viability, T/C [36] 88.3%

CC(Cn1ccc(-c2ccc(C#N)c(Cl)c2)n1)NC(=O)c1cc(C(C)O)[nH]n1 (stereo not given) + CC(Nc1ncnc2nc[nH]c12)c1cc2cccc(Cl)c2c(=O)n1-c1ccccc1
> 10 µM: IC50 (second compound 0.0316 µM) | IC50 (second compound 0.1 µM) | IC50 (second compound 0.316 µM) | IC50 (second compound 1 µM) | IC50 (second compound 3.16 µM) | IC50 (second compound 10 µM)
inactive: viability, T/C [1] 99.4% | viability, T/C [2] 91.1% | viability, T/C [3] 116% | viability, T/C [4] 94% | viability, T/C [5] 105% | viability, T/C [6] 84.5% | viability, T/C [7] 99% | viability, T/C [8] 89.3% | viability, T/C [9] 115% | viability, T/C [10] 108% | viability, T/C [11] 108% | viability, T/C [12] 80.5% | viability, T/C [13] 97.9% | viability, T/C [14] 99% | viability, T/C [15] 95.2% | viability, T/C [16] 119% | viability, T/C [17] 99.4% | viability, T/C [18] 87.3% | viability, T/C [19] 107% | viability, T/C [20] 93.8% | viability, T/C [21] 106% | viability, T/C [22] 113% | viability, T/C [23] 90.8% | viability, T/C [24] 80% | viability, T/C [25] 92.2% | viability, T/C [26] 96% | viability, T/C [27] 94.7% | viability, T/C [28] 91.3% | viability, T/C [29] 92.4% | viability, T/C [30] 69.5% | viability, T/C [31] 78.4% | viability, T/C [32] 93.3% | viability, T/C [33] 86.8% | viability, T/C [34] 79.7% | viability, T/C [35] 89.7% | viability, T/C [36] 69%

Cn1ncc(Cl)c1-c1cc(C(=O)NC(CN)Cc2cccc(F)c2)sc1Cl (stereo not given) + CC(Nc1ncnc2nc[nH]c12)c1cc2cccc(Cl)c2c(=O)n1-c1ccccc1
0.479 µM: IC50 (second compound 10 µM)
0.708 µM: IC50 (second compound 0.316 µM)
inactive: viability, T/C [1] 129% | viability, T/C [2] 90.4% | viability, T/C [3] 68.3% | viability, T/C [4] 45.8% | viability, T/C [5] 26.5% | viability, T/C [7] 97.8% | viability, T/C [8] 87.2% | viability, T/C [9] 71.8% | viability, T/C [10] 39.9% | viability, T/C [11] 27.5% | viability, T/C [12] 9.37% | viability, T/C [13] 93.9% | viability, T/C [14] 103% | viability, T/C [15] 62.8% | viability, T/C [16] 42.6% | viability, T/C [17] 23.8% | viability, T/C [18] 7.95% | viability, T/C [19] 108% | viability, T/C [20] 92.2% | viability, T/C [21] 62.2% | viability, T/C [22] 42.9% | viability, T/C [23] 27.2% | viability, T/C [24] 8.92% | viability, T/C [25] 97.7% | viability, T/C [26] 93.8% | viability, T/C [27] 64.8% | viability, T/C [28] 36.7% | viability, T/C [29] 26.5% | viability, T/C [30] 7.12% | viability, T/C [31] 99.7% | viability, T/C [32] 78.2% | viability, T/C [33] 56.9% | viability, T/C [34] 37.2% | viability, T/C [35] 21.3%
active: viability, T/C [6] 10.4% | viability, T/C [36] 6.29%
0.769 µM: IC50 (second compound 0.1 µM)
0.991 µM: IC50 (second compound 0.0316 µM)
0.646 µM: IC50 (second compound 3.16 µM)
0.709 µM: IC50 (second compound 1 µM)

Cn1nccc1Nc1nccc(-c2ccn(C(CO)c3ccc(Cl)c(F)c3)c(=O)c2)n1 (stereo not given) + CC(Nc1ncnc2nc[nH]c12)c1cc2cccc(Cl)c2c(=O)n1-c1ccccc1
> 10 µM: IC50 (second compound 0.0316 µM) | IC50 (second compound 0.1 µM) | IC50 (second compound 0.316 µM) | IC50 (second compound 1 µM) | IC50 (second compound 3.16 µM) | IC50 (second compound 10 µM)
inactive: viability, T/C [1] 104% | viability, T/C [2] 95.8% | viability, T/C [3] 101% | viability, T/C [4] 110% | viability, T/C [5] 94% | viability, T/C [6] 86.5% | viability, T/C [7] 101% | viability, T/C [8] 88.9% | viability, T/C [9] 102% | viability, T/C [10] 105% | viability, T/C [11] 100% | viability, T/C [12] 88.4% | viability, T/C [13] 116% | viability, T/C [14] 96.2% | viability, T/C [15] 96.8% | viability, T/C [16] 88.7% | viability, T/C [17] 101% | viability, T/C [18] 80.4% | viability, T/C [19] 104% | viability, T/C [20] 93.9% | viability, T/C [21] 101% | viability, T/C [22] 105% | viability, T/C [23] 102% | viability, T/C [24] 79.3% | viability, T/C [25] 88.5% | viability, T/C [26] 103% | viability, T/C [27] 100% | viability, T/C [28] 100% | viability, T/C [29] 93% | viability, T/C [30] 73.6% | viability, T/C [31] 86.5% | viability, T/C [32] 80.6% | viability, T/C [33] 79.9% | viability, T/C [34] 90.8% | viability, T/C [35] 97.7% | viability, T/C [36] 78.5%
